Earlier results, collected in patent publication US6372715B1, “Use of erythropoientin and iron preparations for producing pharmaceutical combination preparations for treating rheumatic diseases” (Roche Diagnostics GmbH, priority 1997, dated 2002).

With [Fe] [elementary iron] as the compound, how does the oral iron resorption (oral) read?
Its oral iron resorption is “about 1 mg per day”.

And the “oral iron resorption under extreme loading” value (oral administration of about 300 mg Fe(III)/day)?
The value was “less than 3 mg per day”.
